How the values were obtained:
Assay type in all cases: in vivo
[1] = tested on: upland rice (Oryza sp., var. Tebonnet, RICE); experiment: Post-emerge test, crop safety; details: post-emerge; for phytotoxicity rating RICE (crop damage): 14 days after application, rating scale 0-100; for Post-emerge Herbicidal Activity RICE: crop damage rating 0-100 at 14 days after application
Summary of the method: (§1)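 Compounds in acetone were track-sprayed at 187 l/ha, 15–1000 g ai/ha, onto sandy loam pots. Pre-emerge seeds were sown one day before spraying, with surface watering afterwards. Post-emerge plants were at the 2–3 leaf stage and sprayed with 0.25% v/v non-ionic surfactant. Injury was rated 0–100 at 14 days.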

[2] = tested on: field corn (Zea mays L., var. Dekalb 535, CORN); experiment: Post-emerge test, crop safety; details: post-emerge; for phytotoxicity rating CORN (crop damage): 14 days after application, rating scale 0-100; for Post-emerge Herbicidal Activity CORN: crop damage rating 0-100 at 14 days after application
Summary of the method: as §1

[3] = tested on: barnyardgrass (Echinochloa crus-galli, ECHCG); experiment: Pre-emerge test, greenhouse herbicide activity screening
Summary of the method: as §1

[4] = tested on: velvetleaf (Abutilon theophrasti, ABUTH); experiment: as above
Summary of the method: as §1

[5] = tested on: large crabgrass (Digitaria sanguinalis, DIGSA); experiment: as above
Summary of the method: as §1

[6] = tested on: sicklepod (Cassia obtusifolia, CASOB); experiment: as above
Summary of the method: as §1

[7] = tested on: ivyleaf morningglory (Ipomoea hederacea, IPOHE); experiment: as above
Summary of the method: as §1

[8] = tested on: green foxtail (Setaria viridis, SETVI); experiment: as above
Summary of the method: as §1

[9] = tested on: lambsquarters (Chenopodium album, CHEAL); experiment: as above
Summary of the method: as §1

[10] = tested on: redroot pigweed (Amaranthus retroflexus, AMARE); experiment: as above
Summary of the method: as §1

[11] = tested on: upland rice (Oryza sp., var. Tebonnet, RICE); experiment: Pre-emerge test, crop safety
Summary of the method: (§2)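 Herbicidal damage is scored 0 (none) to 100 (complete plant death) two weeks after a simulated field spray. Rates span 15–1000 g ai/ha, delivered in acetone at 187 l/ha. For post-emergence treatments, plants have 2–3 leaves and the spray carries 0.25% v/v non-ionic surfactant.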

[12] = tested on: field corn (Zea mays L., var. Dekalb 535, CORN); experiment: Pre-emerge test, crop safety
Summary of the method: as §2

[13] = tested on: redroot pigweed (Amaranthus retroflexus, AMARE); experiment: Post-emerge test, greenhouse herbicide activity screening; details: post-emerge; for phytotoxicity rating AMARE: 14 days after application; for Post-emerge Herbicidal Activity AMARE: phytotoxicity rating 0-100 at 14 days after application
Summary of the method: (§3)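 Applied at 15–1000 g ai/ha from acetone in 187 l/ha spray volume. Post-emergence applications included 0.25% v/v non-ionic surfactant and reached plants sown 8–21 days before. Pre-emergence applications were incorporated by surface watering. Efficacy or crop damage was rated on a 0–100 scale after 14 days.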

[14] = tested on: barnyardgrass (Echinochloa crus-galli, ECHCG); experiment: as above; details: post-emerge; for phytotoxicity rating ECHCG: 14 days after application, rating scale 0-100; for Post-emerge Herbicidal Activity ECHCG: phytotoxicity rating 0-100 at 14 days after application
Summary of the method: as §3

[15] = tested on: johnsongrass (Sorghum halepense, SORHA); experiment: as above; details: post-emerge; for phytotoxicity rating SORHA: 14 days after application, rating scale 0-100; for Post-emerge Herbicidal Activity SORHA: phytotoxicity rating 0-100 at 14 days after application
Summary of the method: as §3

[16] = tested on: velvetleaf (Abutilon theophrasti, ABUTH); experiment: as above; details: post-emerge; for phytotoxicity rating ABUTH: 14 days after application, rating scale 0-100; for Post-emerge Herbicidal Activity ABUTH: phytotoxicity rating 0-100 at 14 days after application
Summary of the method: as §3

[17] = tested on: large crabgrass (Digitaria sanguinalis, DIGSA); experiment: as above; details: post-emerge; for phytotoxicity rating DIGSA: 14 days after application, rating scale 0-100; for Post-emerge Herbicidal Activity DIGSA: phytotoxicity rating 0-100 at 14 days after application
Summary of the method: as §3

[18] = tested on: sicklepod (Cassia obtusifolia, CASOB); experiment: as above; details: post-emerge; for phytotoxicity rating CASOB: 14 days after application, rating scale 0-100; for Post-emerge Herbicidal Activity CASOB: phytotoxicity rating 0-100 at 14 days after application
Summary of the method: as §3

[19] = tested on: ivyleaf morningglory (Ipomoea hederacea, IPOHE); experiment: as above; details: post-emerge; for phytotoxicity rating IPOHE: 14 days after application, rating scale 0-100; for Post-emerge Herbicidal Activity IPOHE: phytotoxicity rating 0-100 at 14 days after application
Summary of the method: as §3

[20] = tested on: green foxtail (Setaria viridis, SETVI); experiment: as above; details: post-emerge; for phytotoxicity rating SETVI: 14 days after application, rating scale 0-100; for Post-emerge Herbicidal Activity SETVI: phytotoxicity rating 0-100 at 14 days after application
Summary of the method: as §3

[21] = tested on: lambsquarters (Chenopodium album, CHEAL); experiment: as above; details: post-emerge; for phytotoxicity rating CHEAL: 14 days after application, rating scale 0-100; for Post-emerge Herbicidal Activity CHEAL: phytotoxicity rating 0-100 at 14 days after application
Summary of the method: as §3

[22] = 63 g ai/ha, phytotoxicity rating 0-100, 14 days after application
[23] = 250 g ai/ha, phytotoxicity rating 0-100, 14 days after application
[24] = 63 g ai/ha, crop damage rating 0-100, 14 days after application
[25] = 250 g ai/ha, crop damage rating 0-100, 14 days after application
[26] = pre-emerge, rate 63 g ai/ha, phytotoxicity rating 0-100 at 14 days after application
[27] = pre-emerge, rate 250 g ai/ha, phytotoxicity rating 0-100 at 14 days after application
[28] = crop damage, pre-emerge, rate 63 g ai/ha, phytotoxicity rating 0-100 at 14 days after application
[29] = crop damage, pre-emerge, rate 250 g ai/ha, phytotoxicity rating 0-100 at 14 days after application

COc1c(Cl)cc(F)c(-n2c(=O)cc(C(F)(F)F)n(C)c2=O)c1NC(=O)OCc1ccccn1 [4-36]
phytotoxicity rating RICE (crop damage) ([1]; 63 g ai/ha): 60
phytotoxicity rating RICE (crop damage) ([1]; 250 g ai/ha): 100
phytotoxicity rating CORN (crop damage) ([2]; 63 g ai/ha): 50
phytotoxicity rating CORN (crop damage) ([2]; 250 g ai/ha): 100
Pre-emerge Herbicidal Activity ECHCG [3, 22]: 30
Pre-emerge Herbicidal Activity ECHCG [3, 23]: 90
Pre-emerge Herbicidal Activity ABUTH [4, 22]: 100
Pre-emerge Herbicidal Activity ABUTH [4, 23]: 100
Pre-emerge Herbicidal Activity DIGSA [5, 22]: 30
Pre-emerge Herbicidal Activity DIGSA [5, 23]: 100
Pre-emerge Herbicidal Activity CASOB [6, 22]: 80
Pre-emerge Herbicidal Activity CASOB [6, 23]: 100
Pre-emerge Herbicidal Activity IPOHE [7, 22]: 100
Pre-emerge Herbicidal Activity IPOHE [7, 23]: 100
Pre-emerge Herbicidal Activity SETVI [8, 22]: 60
Pre-emerge Herbicidal Activity SETVI [8, 23]: 100
Pre-emerge Herbicidal Activity CHEAL [9, 22]: 100
Pre-emerge Herbicidal Activity CHEAL [9, 23]: 100
Pre-emerge Herbicidal Activity AMARE [10, 22]: 90
Pre-emerge Herbicidal Activity AMARE [10, 23]: 100
Pre-emerge Herbicidal Activity RICE [11, 24]: 60
Pre-emerge Herbicidal Activity RICE [11, 25]: 95
Pre-emerge Herbicidal Activity CORN [12, 24]: 90
Pre-emerge Herbicidal Activity CORN [12, 25]: 100
phytotoxicity rating AMARE ([13]; 63 g ai/ha, rating scale 0-100 (0 no damage, 100 complete death)): 100
phytotoxicity rating AMARE ([13]; 250 g ai/ha, rating scale 0-100): 100
phytotoxicity rating ECHCG ([14]; 63 g ai/ha): 20
phytotoxicity rating ECHCG ([14]; 250 g ai/ha): 60
phytotoxicity rating SORHA ([15]; 63 g ai/ha): 10
phytotoxicity rating SORHA ([15]; 250 g ai/ha): 90
phytotoxicity rating ABUTH ([16]; 63 g ai/ha): 100
phytotoxicity rating ABUTH ([16]; 250 g ai/ha): 100
phytotoxicity rating DIGSA ([17]; 63 g ai/ha): 30
phytotoxicity rating DIGSA ([17]; 250 g ai/ha): 70
phytotoxicity rating CASOB ([18]; 63 g ai/ha): 100
phytotoxicity rating CASOB ([18]; 250 g ai/ha): 100
phytotoxicity rating IPOHE ([19]; 63 g ai/ha): 100
phytotoxicity rating IPOHE ([19]; 250 g ai/ha): 100
phytotoxicity rating SETVI ([20]; 63 g ai/ha): 90
phytotoxicity rating SETVI ([20]; 250 g ai/ha): 90
phytotoxicity rating CHEAL ([21]; 63 g ai/ha): 100
phytotoxicity rating CHEAL ([21]; 250 g ai/ha): 100

Cc1nn(-c2c(Cl)cc(Cl)cc2NC(=O)c2ccc(F)cc2F)c(=O)n1C(F)F [Compound 6-13]
Post-emerge Herbicidal Activity RICE ([1]; 63 g ai/ha): 10
Post-emerge Herbicidal Activity RICE ([1]; 250 g ai/ha): 30
Post-emerge Herbicidal Activity CORN ([2]; 63 g ai/ha): 15
Post-emerge Herbicidal Activity CORN ([2]; 250 g ai/ha): 20
Pre-emerge Herbicidal Activity ECHCG [3, 26]: 10
Pre-emerge Herbicidal Activity ECHCG [3, 27]: 40
Pre-emerge Herbicidal Activity ABUTH [4, 26]: 10
Pre-emerge Herbicidal Activity ABUTH [4, 27]: 40
Pre-emerge Herbicidal Activity DIGSA [5, 26]: 80
Pre-emerge Herbicidal Activity DIGSA [5, 27]: 90
Pre-emerge Herbicidal Activity CASOB [6, 26]: 0
Pre-emerge Herbicidal Activity CASOB [6, 27]: 0
Pre-emerge Herbicidal Activity IPOHE [7, 26]: 0
Pre-emerge Herbicidal Activity IPOHE [7, 27]: 0
Pre-emerge Herbicidal Activity SETVI [8, 26]: 80
Pre-emerge Herbicidal Activity SETVI [8, 27]: 100
Pre-emerge Herbicidal Activity CHEAL [9, 26]: 40
Pre-emerge Herbicidal Activity CHEAL [9, 27]: 100
Pre-emerge Herbicidal Activity AMARE [10, 26]: 60
Pre-emerge Herbicidal Activity AMARE [10, 27]: 100
Pre-emerge Herbicidal Activity RICE [11, 28]: 0
Pre-emerge Herbicidal Activity RICE [11, 29]: 10
Pre-emerge Herbicidal Activity CORN [12, 28]: 0
Pre-emerge Herbicidal Activity CORN [12, 29]: 0
Post-emerge Herbicidal Activity AMARE ([13]; 63 g ai/ha): 70
Post-emerge Herbicidal Activity AMARE ([13]; 250 g ai/ha): 90
Post-emerge Herbicidal Activity ECHCG ([14]; 63 g ai/ha): 0
Post-emerge Herbicidal Activity ECHCG ([14]; 250 g ai/ha): 30
Post-emerge Herbicidal Activity SORHA ([15]; 63 g ai/ha): 0
Post-emerge Herbicidal Activity SORHA ([15]; 250 g ai/ha): 10
Post-emerge Herbicidal Activity ABUTH ([16]; 63 g ai/ha): 100
Post-emerge Herbicidal Activity ABUTH ([16]; 250 g ai/ha): 90
Post-emerge Herbicidal Activity DIGSA ([17]; 63 g ai/ha): 20
Post-emerge Herbicidal Activity DIGSA ([17]; 250 g ai/ha): 30
Post-emerge Herbicidal Activity CASOB ([18]; 63 g ai/ha): 0
Post-emerge Herbicidal Activity CASOB ([18]; 250 g ai/ha): 30
Post-emerge Herbicidal Activity IPOHE ([19]; 63 g ai/ha): 50
Post-emerge Herbicidal Activity IPOHE ([19]; 250 g ai/ha): 60
Post-emerge Herbicidal Activity SETVI ([20]; 63 g ai/ha): 50
Post-emerge Herbicidal Activity SETVI ([20]; 250 g ai/ha): 90
Post-emerge Herbicidal Activity CHEAL ([21]; 63 g ai/ha): 85
Post-emerge Herbicidal Activity CHEAL ([21]; 250 g ai/ha): 90
